Legend:
SKN-1::GFP = test: Accumulation of SKN-1::GFP in intestinal nuclei in response to oxidative stress (skn-1::gfp transgenic worms); format: in vivo, C. elegans
Method: To create transgenic skn-1::gfp strains, 2.5, 10, or 50 ng/μl of transgene DNA (FIG. 5A) was injected into N2 animals at along with 100 ng/μl of pRF4 to generate extrachromosomal transgenic lines. Two different extrachromosomal arrays, Ex001 and Ex007, generated with 2.5 and 10 ng/μl of SKN-1::GFP, respectively, were integrated into the chromosome by UV irradiation (400 J/m2) to produce the insertion strains Is001 and Is007, respectively. To rescue the embryonic lethality of a skn-1 mutation, SKN-1::GFP was injected into skn-1(zu67)/DnT1 animals at 2.5 ng/μl with 100 ng/μl of the pRF4 marker. […] To analyze expression and localization of SKN-1::GFP in response to oxidative stress, skn-1::gfp transgenic worms were treated as described above for the gcs-1::gfp expression studies. […] These worms were scored for presence of SKN-1::GFP in intestinal nuclei 5 minutes later. […] To discriminate intestinal autofluorescence from SKN-1::GPP epifluorescence, a triple band emission filter set (Chroma 61000) was used in conjunction with a narrow band excitation filter (484/14 nm). This combination allowed autofluorescence to be detected as yellow/orange fluorescence deriving from a combined green and red signal, while GFP remained green. Worms that carried skn-1::gfp, gcs-1::gfp and gcs-1::gfp mutant transgenes were incubated with 50 μg/ml DiI (Molecular Probes) in M9 for 3 hours at 20° C., then transferred to fresh plates for 1 hour to destain, and examined under the fluorescence microscope. The ASI chemosensory neurons were identified by according to their intensity of DiI labeling and location relative to other DiI-labeled cells.

[1] = system: GCS-1::GFP expression in the intestine; test: Induction of GCS-1::GFP expression in the intestine by oxidative stress (transgenic worms, fluorescence microscopy); format: in vivo, C. elegans; details: for percentage of animals with high intestinal GCS-1::GFP expression / percentage of animals with low intestinal GCS-1::GFP expression / percentage of animals with medium intestinal GCS-1::GFP expression: 1 mM paraquat in the agar, 20° C., 3 days, mixed L2-young adult worms
Method: Transgenic strains were generated by injecting DNA into the gonad of young adult animals as described in Mello et al. (EMBO Journal 10: 3959-3970 (1991)). gcs-1::gfp transgene constructs (FIG. 3A) were injected at 50 ng/μl along with the rol-6 marker (pRF4) at 100 ng/μl. Between three and six independent extrachromosomal lines were generated and analyzed for each gcs-1::gfp construct. To investigate GCS-1::GFP expression in the skn-1(zu67) background, rol-6-marked gcs-1::gfp hermaphrodites were mated with N2 males, then their transgenic progeny were crossed with skn-1(zu67)/DnT1 hermaphrodites, which have an unc phenotype. After transgenic males were successively crossed twice with skn-1(zu67)/DnT1 hermaphrodites, unc; rol F3 hermaphrodite progeny were selected. From this population, skn-1(zu67)/DnT1; gcs-1::gfp animals were identified on the basis of their non-unc; rol progeny laying dead eggs. Two different gcs-1:gfp lines were thereby crossed into the skn-1(zu67) background and examined for GFP expression. DIC and fluorescence images were acquired with a Zeiss AxioSKOP2 microscope and AxioCam cooled color digital camera.
To investigate expression of gcs-1::gfp and mutant transgenes, worms were exposed to oxidative stress under the following conditions. For heat shock, worms cultured at 20° C. were transferred onto prewarmed seeded plates and incubated at 29° C. for 20 hours, then examined by fluorescence microscopy for GFP expression. gcs-1::gfp induction was also observed in an alternative heat treatment protocol, during which worms cultured at 20° C. were transferred onto prewarmed plates and incubated at 34° C. for 2 to 4 hours, then returned to 20° C. and examined for GFP expression hourly during a four hour recovery period. In the experiments described in Table 2, young adults were transferred to plates that contained 1 mM paraquat in the agar and maintained at 20° C. for 3 days prior to analysis. In an alternative induction protocol, worms that carried gcs-1::gfp or the mutant transgenes shown in FIG. 3A were incubated in M9 either with or without 100 mM paraquat for 30 minutes, then allowed to recover on plates for four hours.

[2] = system: C. elegans pathway mediated by SKN-1; details: in vivo
[3] = 2 mM, immobilization for photography, during the times examined (data not shown)
[4] = paraquat, treated as for the gcs-1::gfp studies, mixed-stage L2-young adult worms

Compound: c1ccc([C@H]2CN3CCSC3=N2)cc1 [Levamisole]
- SKN-1::GFP relocalization by immobilization agent (SKN-1::GFP; [3]): did not stimulate
- GCS-1::GFP induction by immobilization agent [1, 3]: did not stimulate

Compound: C[n+]1ccc(-c2cc[n+](C)cc2)cc1 [Paraquat, paraquat (methyl viologen)]
- SKN-1::GFP in the ASI neurons after exposure (SKN-1::GFP; ASI neurons, after exposure to paraquat): neither the location nor intensity of SKN-1::GFP was detectably altered
- SKN-1::GFP in intestinal cell nuclei after exposure (SKN-1::GFP; in a high percentage of animals, particularly anteriorly and posteriorly, after exposure to paraquat): elevated levels of SKN-1::GFP
- percentage of animals with high SKN-1::GFP in intestinal nuclei (SKN-1::GFP; [4]): 3.1%
- percentage of animals with low SKN-1::GFP in intestinal nuclei (SKN-1::GFP; [4]): 53.1%
- percentage of animals with medium SKN-1::GFP in intestinal nuclei (SKN-1::GFP; [4]): 43.8%
- intestinal gcs-1::gfp expression, alternative induction protocol ([1]; 100 mM paraquat in M9 for 30 minutes, four hours recovery on plates): induction of intestinal gcs-1::gfp expression
- percentage of animals with high intestinal GCS-1::GFP expression ([1]; gcs-1::gfp transgene): 18.4%
- percentage of animals with low intestinal GCS-1::GFP expression ([1]; gcs-1::gfp transgene): 14.5%
- percentage of animals with medium intestinal GCS-1::GFP expression ([1]; gcs-1::gfp transgene): 67.1%
- percentage of animals with high intestinal GCS-1::GFP expression ([1]; gcsΔ2::gfp transgene): 13.1%
- percentage of animals with low intestinal GCS-1::GFP expression ([1]; gcsΔ2::gfp transgene): 21.3%
- percentage of animals with medium intestinal GCS-1::GFP expression ([1]; gcsΔ2::gfp transgene): 65.6%
- GCS-1::GFP in the intestine and ASI neurons of skn-1 homozygotes ([1]; skn-1 homozygotes, after paraquat treatment (data not shown)): absence of GCS-1::GFP

Compound: [N-]=[N+]=[N-] [Sodium Azide, sodium azide]
- percentage of animals with high SKN-1::GFP in intestinal nuclei (SKN-1::GFP; in vivo): 55.0%
- percentage of animals with low SKN-1::GFP in intestinal nuclei (SKN-1::GFP; in vivo): 0.8%
- percentage of animals with medium SKN-1::GFP in intestinal nuclei (SKN-1::GFP; in vivo): 44.2%

Compound: C[S+]([O-])CCCCN=C=S (stereo not shown) [sulforaphane]
- response of the SKN-1-mediated pathway [2]: responds

From US7572949B2, “SKN-1 and GSK-3 genes and proteins” (Immune Disease Institute, Inc., priority 2003, dated 2009)
